Measurements taken from patent publication US20120004297A1, “Agent for alleviating vascular failure” (Naoki HIGASHI, priority 2005, published 2012).

Experiments:
[1] = cited from earlier work
[2] = system: Vascular endothelial cells (GM07373A); assay: Fluorescent intensity of vascular endothelial cells injured by hydrogen peroxide plus glucose, 24-wells plate, graphic analysis software method; format: cell-based, cattle; conditions: for Fluorescent intensity compared with the hydrogen peroxide plus glucose added system: sample further added to hydrogen peroxide plus glucose
Description: Vascular endothelial cells (GM07373A) subcultured with 10% FBS added EMEM were separated with a trypsin-EDTA solution. To 1.5 ml of the solution of the cells floated on 10% FBS added EMEM was added 9 ml of 10% FBS added EMEM and the resultant mixture was placed in a laboratory dish having a diameter of 9 cm and pre-cultivation was conducted at 37° C. for 3-4 days under an atmosphere of 5% carbon dioxide. Vascular endothelial cells in the culture broth were separated with a trypsin-EDTA solution and floated on 10% FBS added EMEM. 1 ml of the floated cell solution (number of cell: 0.7-0.9×10^5 cell/ml) was poured into each well of 24-wells plate and the main cultivation was conducted at 37° C. for 2 days under an atmosphere of 5% carbon dioxide. After removal of the culture medium, 0.4% FBS added EMEM was added in an amount of 500 μl per well to make the cells in starved state and cultivation was conducted at 37° C. over a night under an atmosphere of 5% carbon dioxide. A sample solution and 10 μl of an aqueous glucose solution (200 mg/ml) were added and cultivation was conducted at 37° C. for 2 hours under an atmosphere of 5% carbon dioxide. After removal of the culture medium, A Hanks' solution (a product of Nihon Pharmaceutical Co., Ltd.) was added to the wells in the amount of 1 ml per well for twice washing. After removal of the solution, a dye solution containing hydrogen peroxide (or a dye solution not containing hydrogen peroxide) was added in the amount of 300 μl per well and cultivation was conducted at 37° C. for 30 minutes under an atmosphere of 5% carbon dioxide. The dye solution was removed to measure the fluorescent intensity of the cell.
GM07373A is a cattle's aortic vascular endothelial cell strain, “Repository No. GM07373A” purchased from Coriel Human Genetic Cell Repository in U.S.A. The dye solution containing hydrogen peroxide was prepared by mixing 50 μg of the solution of fluorescent pigment (“C-6827”, a product of Molecular Probe Company) dissolved in 90 μl of DMSO with 9 ml of the Hanks' solution and adding 90 μl of 0.3% hydrogen peroxide thereto. Hydrogen peroxide was not added for the control test.
As a sample solution, there were used methanol solutions of astaxanthin (a product of Sigma Company) in 0.053 mg/ml and 0.0053 mg/ml, methanol solutions of α-tocopherol (a product of Wako Pure Chemical Industries, Ltd.) in 0.25 mg/ml and 0.025 mg/ml and methanol solutions of tocotrienol (a product of Sigma Company) in 0.25 mg/ml and 0.025 mg/ml. 10 μl of each of the sample solution was added to 500 μl of the culture medium.
The fluorescent intensity was measured at the optional three places under 100 times magnifications using a Leica stereoscopic fluorescence microscope “MZ FL III” (having a Leica macro fluorescence apparatus having a “GFP” attachment) and a filter set (name): GEP Plant fluorescence (GFP2) (excitation filter: 480/40 nm, absorption filter: 510 nm). Each of the pictures was captured by a CDD camera and converted into gray intensity % to measure the fluorescent intensity. The fluorescent intensity was measured for three places per well and the average value was calculated. Also, 3-4 wells were prepared for each kind of sample.
The system where astaxanthin has added is one where astaxanthin in addition to hydrogen peroxide plus glucose was added. The period of time for pre-cultivation was […] and the number of cells was 0.84×10^5 cell per well.
The tocotrienol or α-tocopherol added system is one where tocotrienol or α-tocopherol in addition to hydrogen peroxide plus glucose was added. The period of time for pre-cultivation was 3 days and the number of cells was 0.89×10^5 cell per well.

[3] = specimen 0.5 μg/ml added in addition to hydrogen peroxide plus glucose
[4] = specimen 5.0 μg/ml added in addition to hydrogen peroxide plus glucose

| Molecule | Antioxidative action, times as strong as tocopherol ([1]; relative to tocopherol) | Fluorescent intensity compared with the hydrogen peroxide plus glucose added system [2] | Fluorescent intensity (%) [2, 3] [%] | Fluorescent intensity (%) [2, 4] [%] | Antioxidative action, times as strong as vitamin E ([1]; relative to vitamin E) | Antioxidative action, times as strong as β-carotene ([1]; relative to β-carotene) | Fluorescent intensity (%) ([2]; astaxanthin 0.104 μg/ml added in addition to hydrogen peroxide plus glucose) | Fluorescent intensity (%) ([2]; astaxanthin 1.04 μg/ml added in addition to hydrogen peroxide plus glucose) |
| --- | --- | --- | --- | --- | --- | --- | --- | --- |
| tocotrienol [Tocotorienol] | about 50 times | less fluorescent intensity than the hydrogen peroxide plus glucose added system | 4.35 | 4.40 |  |  |  |  |
| Cc1c(C)c2c(c(C)c1O)CC[C@@](C)(CCC[C@H](C)CCC[C@H](C)CCCC(C)C)O2 [α-Tocopherol, α-tocopherol] |  | less fluorescent intensity than the hydrogen peroxide plus glucose added system | 4.74 | 4.32 |  |  |  |  |
| CC1=C(/C=C/C(C)=C/C=C/C(C)=C/C=C/C=C(C)/C=C/C=C(C)/C=C/C2=C(C)C(=O)C(O)CC2(C)C)C(C)(C)CC(O)C1=O (stereo not drawn) [Astaxanthin, 3,3′-dihydroxy-β,β-carotene-4,4′-dione] |  | less fluorescent intensity than the hydrogen peroxide plus glucose added system |  |  | about 1000 times | about 40 times | 2.55 | 1.93 |
